Assay results reported in patent US10189841B2, “Purinones as ubiquitin-specific protease 1 inhibitors” (Forma Therapeutics, Inc., priority 2015, dated 2019).

Biological target: USP1 (construct USP1 (I-785, GG670, 671AA)/UAF1 (I-677)-Flag) (Homo sapiens (Human), UniProt O94782, G670A/G671A)
Experiment: Ubiquitin-Rhodamine 110 assay for USP1 activity
Format: biochemical
Details: USP1/UAF1 25 pM, Ub-Rh110 25 nM, 30 min preincubation
Procedure, shortened: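 Ub-Rh110 (25 nM, ≪Km) cleavage read at ex 485/em 535 in Tris pH 8.0, CaCl2, GSH, Prionex, Triton X-100. The screen used 10 µM compound, 100 pM USP1/UAF1 and 45 min at RT.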

Chain of USP1 (construct USP1 (I-785, GG670, 671AA)/UAF1 (I-677)-Flag) (O94782 whole entry G670A/G671A): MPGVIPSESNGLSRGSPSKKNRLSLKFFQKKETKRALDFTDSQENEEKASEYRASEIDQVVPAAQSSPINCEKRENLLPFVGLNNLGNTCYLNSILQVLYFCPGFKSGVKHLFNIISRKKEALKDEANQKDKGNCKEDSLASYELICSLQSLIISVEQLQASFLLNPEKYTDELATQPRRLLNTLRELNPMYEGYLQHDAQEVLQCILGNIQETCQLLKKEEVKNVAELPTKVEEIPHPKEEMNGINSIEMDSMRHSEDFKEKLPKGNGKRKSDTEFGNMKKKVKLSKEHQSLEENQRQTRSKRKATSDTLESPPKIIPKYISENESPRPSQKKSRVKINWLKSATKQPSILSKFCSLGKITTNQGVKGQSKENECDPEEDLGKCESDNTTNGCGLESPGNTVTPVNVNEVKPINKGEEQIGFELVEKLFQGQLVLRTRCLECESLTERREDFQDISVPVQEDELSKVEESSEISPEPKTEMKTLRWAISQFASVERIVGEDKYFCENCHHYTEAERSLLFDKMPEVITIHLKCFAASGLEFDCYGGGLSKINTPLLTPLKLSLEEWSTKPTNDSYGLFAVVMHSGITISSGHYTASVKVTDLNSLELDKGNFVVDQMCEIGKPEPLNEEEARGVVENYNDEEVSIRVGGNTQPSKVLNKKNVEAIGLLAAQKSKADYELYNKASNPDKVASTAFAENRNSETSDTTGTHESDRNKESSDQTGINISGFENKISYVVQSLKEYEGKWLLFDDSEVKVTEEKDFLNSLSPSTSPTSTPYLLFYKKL
Chain of USP1 (construct USP1 (I-785, GG670, 671AA)/UAF1 (I-677)-Flag) (Q8TAF3 whole entry partner): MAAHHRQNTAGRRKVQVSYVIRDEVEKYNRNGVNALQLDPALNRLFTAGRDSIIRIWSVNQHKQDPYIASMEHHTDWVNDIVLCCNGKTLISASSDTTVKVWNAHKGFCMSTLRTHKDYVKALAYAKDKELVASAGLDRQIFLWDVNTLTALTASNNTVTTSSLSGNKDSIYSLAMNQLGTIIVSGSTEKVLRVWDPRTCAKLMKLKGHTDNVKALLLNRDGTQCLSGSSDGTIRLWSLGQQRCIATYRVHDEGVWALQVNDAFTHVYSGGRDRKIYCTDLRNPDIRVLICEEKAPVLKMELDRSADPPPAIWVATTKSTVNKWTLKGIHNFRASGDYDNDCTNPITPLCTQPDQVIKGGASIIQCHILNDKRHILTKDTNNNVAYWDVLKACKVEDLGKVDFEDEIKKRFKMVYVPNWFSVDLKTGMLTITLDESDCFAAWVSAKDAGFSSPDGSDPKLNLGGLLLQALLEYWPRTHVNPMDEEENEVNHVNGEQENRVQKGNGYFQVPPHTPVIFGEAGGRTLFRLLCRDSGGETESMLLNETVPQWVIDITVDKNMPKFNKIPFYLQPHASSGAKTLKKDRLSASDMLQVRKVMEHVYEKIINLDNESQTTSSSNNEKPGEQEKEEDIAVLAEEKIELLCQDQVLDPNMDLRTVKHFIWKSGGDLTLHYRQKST

SMILES	IC50
Cn1cc(C(F)(F)F)nc1-c1ccc(Cn2c(=O)[nH]c3cnc(-c4cccnc4OCC4CCCO4)nc32)cc1 (stereo not shown) [Compound I-424, 9-(4-(1-methyl-4-(trifluoromethyl)-1H-imidazol-2-yl)benzyl)-2-(2-((tetrahydrofuran-2-yl)methoxy)pyridin-3-yl)-7,9-dihydro-8H-purin-8-one]	< 50 nM
Cn1cc(C(F)(F)F)nc1-c1ccc(Cn2c(=O)[nH]c3cnc(-c4cccnc4OCC4CCOC4)nc32)cc1 (stereo not shown) [Compound I-425, 9-(4-(1-methyl-4-(trifluoromethyl)-1H-imidazol-2-yl)benzyl)-2-(2-((tetrahydrofuran-3-yl)methoxy)pyridin-3-yl)-7,9-dihydro-8H-purin-8-one]	< 50 nM
COC(C)CCOc1ncccc1-c1ncc2[nH]c(=O)n(Cc3ccc(-c4nc(C(F)(F)F)cn4C)cc3)c2n1 (stereo not shown) [Compound I-426, 2-(2-(3-methoxybutoxy)pyridin-3-yl)-9-(4-(1-methyl-4-(trifluoromethyl)-1H-imidazol-2-yl)benzyl)-7,9-dihydro-8H-purin-8-one]	< 50 nM
CCC(CC)Oc1ncccc1-c1ncc2[nH]c(=O)n(Cc3ccc(-c4nc(C(F)(F)F)cn4C)cc3)c2n1 [Compound I-427, 9-(4-(1-methyl-4-(trifluoromethyl)-1H-imidazol-2-yl)benzyl)-2-(2-(pentan-3-yloxy)pyridin-3-yl)-7,9-dihydro-8H-purin-8-one]	< 50 nM
CCC(COC)Oc1ncccc1-c1ncc2[nH]c(=O)n(Cc3ccc(-c4nc(C(F)(F)F)cn4C)cc3)c2n1 (stereo not shown) [Compound I-428, 2-(2-((1-methoxybutan-2-yl)oxy)pyridin-3-yl)-9-(4-(1-methyl-4-(trifluoromethyl)-1H-imidazol-2-yl)benzyl)-7,9-dihydro-8H-purin-8-one]	50 to 200 nM
CN(C)CCOc1ncccc1-c1ncc2[nH]c(=O)n(Cc3ccc(-c4nc(C(F)(F)F)cn4C)cc3)c2n1 [Compound I-429, 2-(2-(2-(dimethylamino)ethoxy)pyridin-3-yl)-9-(4-(1-methyl-4-(trifluoromethyl)-1H-imidazol-2-yl)benzyl)-7,9-dihydro-8H-purin-8-one]	200 to 2000 nM
CC(C)c1ccccc1-c1ncc2[nH]c(=O)n(Cc3ccc(-c4nc(C(F)(F)F)cn4C4CNC4)cc3)c2n1 [Compound I-430, 9-(4-(1-(azetidin-3-yl)-4-(trifluoromethyl)-1H-imidazol-2-yl)benzyl)-2-(2-isopropylphenyl)-7,9-dihydro-8H-purin-8-one]	< 50 nM
CC(C)c1ccccc1-c1ncc2[nH]c(=O)n(Cc3ccc(-n4ccc(C5CCNCC5)n4)cc3)c2n1 [Compound I-431, 2-(2-isopropylphenyl)-9-(4-(3-(piperidin-4-yl)-1H-pyrazol-1-yl)benzyl)-7,9-dihydro-8H-purin-8-one]	50 to 200 nM
CC(C)c1ccccc1-c1ncc2[nH]c(=O)n(Cc3ccc(-n4ccc(N5CCNCC5)n4)cc3)c2n1 [Compound I-432, 2-(2-isopropylphenyl)-9-(4-(3-(piperazin-1-yl)-1H-pyrazol-1-yl)benzyl)-7,9-dihydro-8H-purin-8-one]	200 to 2000 nM
CC(C)c1ccccc1-c1ncc2c(n1)n(Cc1ccc(-n3ccc(C4CCNCC4)n3)cc1)c(=O)n2C [Compound I-433, 2-(2-isopropylphenyl)-7-methyl-9-(4-(3-(piperidin-4-yl)-1H-pyrazol-1-yl)benzyl)-7,9-dihydro-8H-purin-8-one]	200 to 2000 nM
CC(C)c1c(F)cccc1-c1ncc2[nH]c(=O)n(Cc3ccc(-n4ccc(C5CCNCC5)n4)cc3)c2n1 [Compound I-434, 2-(3-fluoro-2-isopropylphenyl)-9-(4-(3-(piperidin-4-yl)-1H-pyrazol-1-yl)benzyl)-7,9-dihydro-8H-purin-8-one]	50 to 200 nM
CC(C)c1ncccc1-c1ncc2[nH]c(=O)n(Cc3ccc(-n4ccc(C5CCNCC5)n4)cc3)c2n1 [Compound I-435, 2-(2-isopropylpyridin-3-yl)-9-(4-(3-(piperidin-4-yl)-1H-pyrazol-1-yl)benzyl)-7,9-dihydro-8H-purin-8-one]	> 2000 nM
CC(C)c1ccccc1-c1ncc2c(n1)n(Cc1ccc(-c3nc(C(F)(F)F)cn3C3CNC3)cc1)c(=O)n2C [Compound I-436, 9-(4-(1-(azetidin-3-yl)-4-(trifluoromethyl)-1H-imidazol-2-yl)benzyl)-2-(2-isopropylphenyl)-7-methyl-7,9-dihydro-8H-purin-8-one]	< 50 nM
CC(C)c1ccccc1-c1ncc2[nH]c(=O)n(Cc3ccc(-c4ncc[nH]4)cc3)c2n1 [Compound I-437, 9-(4-(1H-imidazol-2-yl)benzyl)-2-(2-isopropylphenyl)-7,9-dihydro-8H-purin-8-one]	< 50 nM
CC(C)c1ncccc1-c1ncc2[nH]c(=O)n(Cc3ccc(-c4nc(C(F)(F)F)cn4C4CN(C)C4)cc3)c2n1 [Compound I-438, 2-(2-Isopropylpyridin-3-yl)-9-(4-(1-(1-methylazetidin-3-yl)-4-(trifluoromethyl)-1H-imidazol-2-yl)benzyl)-7,9-dihydro-8H-purin-8-one]	< 50 nM
CC(C)c1ccccc1-c1ncc2[nH]c(=O)n(Cc3ccc(-n4ccc(C5CCN(C)CC5)n4)cc3)c2n1 [Compound I-439, 2-(2-isopropylphenyl)-9-(4-(3-(1-methylpiperidin-4-yl)-1H-pyrazol-1-yl)benzyl)-7,9-dihydro-8H-purin-8-one]	50 to 200 nM
CC(C)c1ccccc1-c1ncc2[nH]c(=O)n(Cc3ccc(-n4ccc(C5CCN(C)C5)n4)cc3)c2n1 (stereo not shown) [Compound I-440, 2-(2-isopropylphenyl)-9-(4-(3-(1-methylpyrrolidin-3-yl)-1H-pyrazol-1-yl)benzyl)-7,9-dihydro-8H-purin-8-one]	200 to 2000 nM
CC(C)c1c(F)cccc1-c1ncc2[nH]c(=O)n(Cc3ccc(-n4ccc(C5CCN(C)CC5)n4)cc3)c2n1 [Compound I-441, 2-(3-fluoro-2-isopropylphenyl)-9-(4-(3-(1-methylpiperidin-4-yl)-1H-pyrazol-1-yl)benzyl)-7,9-dihydro-8H-purin-8-one]	50 to 200 nM
CC(C)c1ncccc1-c1ncc2[nH]c(=O)n(Cc3ccc(-n4ccc(C5CCN(C)CC5)n4)cc3)c2n1 [Compound I-442, 2-(2-isopropylpyridin-3-yl)-9-(4-(3-(1-methylpiperidin-4-yl)-1H-pyrazol-1-yl)benzyl)-7,9-dihydro-8H-purin-8-one]	> 2000 nM
CN1CCC(c2ccn(-c3ccc(Cn4c(=O)[nH]c5cnc(-c6cccnc6OCC(F)(F)F)nc54)cc3)n2)CC1 [Compound I-443, 9-(4-(3-(1-methylpiperidin-4-yl)-1H-pyrazol-1-yl)benzyl)-2-(2-(2,2,2-trifluoroethoxy)pyridin-3-yl)-7,9-dihydro-8H-purin-8-one]	200 to 2000 nM
CC(C)c1ccccc1-c1ncc2[nH]c(=O)n(Cc3ccc(-n4ccc(C5CCCN(C)C5)n4)cc3)c2n1 (stereo not shown) [Compound I-444, 2-(2-isopropylphenyl)-9-(4-(3-(1-methylpiperidin-3-yl)-1H-pyrazol-1-yl)benzyl)-7,9-dihydro-8H-purin-8-one]	< 50 nM
CC(C)c1ccccc1-c1ncc2[nH]c(=O)n(Cc3ccc(-c4nc(C5CCN(C)CC5)cn4C)cc3)c2n1 [Compound I-445, 2-(2-isopropylphenyl)-9-(4-(1-methyl-4-(1-methylpiperidin-4-yl)-1H-imidazol-2-yl)benzyl)-7,9-dihydro-8H-purin-8-one]	< 50 nM
